ChEMBL document CHEMBL1146438, “Structure and anti-acetylcholinesterase activity of 4 alpha-(hydroxymethyl)-4 alpha-demethylterritrem B” (J Nat Prod, 1997)

Target: Acetylcholinesterase (Electrophorus electricus, UniProt O42275)
Assay: Inhibition of electric eel AChE by Ellman's method

Chain of Acetylcholinesterase (O42275 whole entry): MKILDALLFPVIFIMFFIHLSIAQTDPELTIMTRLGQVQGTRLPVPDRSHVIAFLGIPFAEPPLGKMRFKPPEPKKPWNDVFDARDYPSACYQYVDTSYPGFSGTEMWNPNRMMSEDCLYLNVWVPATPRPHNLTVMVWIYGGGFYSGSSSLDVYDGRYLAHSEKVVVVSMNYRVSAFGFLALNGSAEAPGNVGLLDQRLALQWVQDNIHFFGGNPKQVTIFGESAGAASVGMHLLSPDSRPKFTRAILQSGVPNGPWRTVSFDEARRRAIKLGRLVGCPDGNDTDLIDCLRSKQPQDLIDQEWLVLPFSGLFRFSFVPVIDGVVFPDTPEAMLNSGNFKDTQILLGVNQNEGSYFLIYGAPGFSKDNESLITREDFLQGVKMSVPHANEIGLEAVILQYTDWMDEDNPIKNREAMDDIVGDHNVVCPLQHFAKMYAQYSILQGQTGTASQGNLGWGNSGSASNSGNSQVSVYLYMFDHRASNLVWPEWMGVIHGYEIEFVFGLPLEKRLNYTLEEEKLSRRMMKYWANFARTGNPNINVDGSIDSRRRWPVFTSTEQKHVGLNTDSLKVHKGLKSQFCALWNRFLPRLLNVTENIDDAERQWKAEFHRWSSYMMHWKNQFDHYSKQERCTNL

| SMILES | IC50 |
| --- | --- |
| C=CC[N+](C)(C)c1ccc(CCC(=O)CCc2ccc([N+](C)(C)CC=C)cc2)cc1 | 10 nM |
| COc1cc(-c2cc3c(c(=O)o2)C[C@]2(O)[C@@]4(C)C(=O)C=C[C@](C)(CO)[C@]4(O)CC[C@@]2(C)O3)cc(OC)c1OC | 790 nM |
| COc1cc(-c2cc3c(c(=O)o2)C[C@]2(O)[C@@]4(C)C(=O)C=C[C@@](C)(CO)[C@]4(O)CC[C@@]2(C)O3)cc(OC)c1OC [4ALPHA-(HYDROXYMETHYL)-4ALPHA-DEMETHYLTERRITREM B] | 0.423 nM |
